Measured values taken from patent US6054457A, “Benzamide derivatives and their use as vasopressin antagonists” (Fujisawa Pharmaceutical Co., Ltd., priority 1995, dated 2000).
Structures can show the parent of a compound that is named as a salt.

Assays:
[1] = target: Vasopressin 1 (V1) receptor (Homo sapiens, UniProt P37288); assay: Vasopressin 1 (V1) Receptor Binding; details: competition with 1.5 nM 3H-vasopressin, platelet membrane preparation from blood of normal subjects, 15 minutes at 30° C.
human V2 receptor = human V2 receptor (Homo sapiens, UniProt P30518); assay: Vasopressin 2 (V2) Receptor Binding; details: competition with 0.5 nM 3H-vasopressin, membranes of CHO cells expressing human V2 receptor, 2 hours at 22° C.
Chain of human V2 receptor (P30518 whole entry): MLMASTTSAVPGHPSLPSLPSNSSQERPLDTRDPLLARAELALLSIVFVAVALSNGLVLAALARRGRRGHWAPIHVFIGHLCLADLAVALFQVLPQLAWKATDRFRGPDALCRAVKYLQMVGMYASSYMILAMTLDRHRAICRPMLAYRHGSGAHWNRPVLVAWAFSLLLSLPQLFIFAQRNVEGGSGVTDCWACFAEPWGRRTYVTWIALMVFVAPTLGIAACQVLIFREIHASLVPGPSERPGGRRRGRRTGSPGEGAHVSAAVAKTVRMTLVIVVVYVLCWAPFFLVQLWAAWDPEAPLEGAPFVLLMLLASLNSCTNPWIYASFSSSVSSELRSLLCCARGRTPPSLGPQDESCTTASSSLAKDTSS

Chain of Vasopressin 1 (V1) receptor (P37288 whole entry): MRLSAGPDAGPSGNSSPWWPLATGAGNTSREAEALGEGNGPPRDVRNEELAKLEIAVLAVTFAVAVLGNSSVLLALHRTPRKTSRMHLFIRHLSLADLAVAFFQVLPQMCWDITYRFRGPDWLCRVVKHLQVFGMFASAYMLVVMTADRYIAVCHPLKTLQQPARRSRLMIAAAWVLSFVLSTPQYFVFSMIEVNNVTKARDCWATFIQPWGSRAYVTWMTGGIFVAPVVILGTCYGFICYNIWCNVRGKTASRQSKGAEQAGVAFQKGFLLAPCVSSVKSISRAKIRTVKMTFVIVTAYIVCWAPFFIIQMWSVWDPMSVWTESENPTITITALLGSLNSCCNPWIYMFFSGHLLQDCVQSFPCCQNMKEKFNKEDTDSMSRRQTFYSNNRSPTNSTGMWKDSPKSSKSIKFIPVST

| SMILES | IC50 [1] | IC50 (human V2 receptor) |
| --- | --- | --- |
| Cc1ccc(N(C)C(=O)c2ccc(NC(=O)c3ccccc3N)cc2)c(OCCCCCC(=O)O)c1 [5-2), 4-(2-Aminobenzoyl)amino-N-methyl-N-[2-(5-carboxypent-1-yloxy)-4-methylphenyl]benzamide] | 0.051 µM | 1.3 µM |
| CCOC(=O)CCCCCOc1cc(C)ccc1N(C)C(=O)c1ccc(NC(=O)c2ccccc2OCCCN)cc1 [17-20), 4-[2-(3-Aminoprop-1-yl)oxybenzoyl]amino-N-[2-(5-ethoxycarbonylpent-1-yl)oxy-4-methyl]phenyl-N-methylbenzamide hydrochoiride] | 0.031 µM | 1.3 µM |
| CN1CCN(C(=O)CCCCCOc2ccccc2N(C)C(=O)c2ccc(NC(=O)c3ccccc3OCCCN)cc2)CC1 [Example 16, 4-[2-[(3-aminoprop-1-yl)oxy]benzoyl]amino-N-methyl-N-[2-[5-(4-methylpiperazin-1-yl)carbonylpent-1-yloxy]phenyl]benzamide dihydrochloride] | 0.014 µM | 1.4 µM |
